# Data: US20220259655A1, “METHODS FOR ASSESSING THE RISK OF DEVELOPING SEVERE CUTANEOUS ADVERSE DRUG REACTIONS INDUCED BY DISEASE-MODIFYING ANTIRHEUMATIC DRUGS, DETECTION KIT THEREOF AND USES THEREOF” (CHANG GUNG MEMORIAL HOSPITAL, LINKOU, priority 2019, published 2022)
# Read-outs that look alike come from different tables or passages of the source.
# Key:
# HLA-B*3901 allele = HLA-B*3901 allele (Homo sapiens, UniProt P01889, A182T/A93T/A95T/C349S/D138N/D201E/E176V/E187T/E204Q/K202T/Q94N/R155S/R180L/S121R/Y140F/Y91C); details: HLA-B*39:01
# [1] = system: combination of HLA-B*1301 allele and HLA-B*3901 allele; details: in vivo
# [2] = system: combination of HLA-B*1502 allele and HLA-B*3802 allele; details: in vivo
# HLA-B*1502 allele = HLA-B*1502 allele (Homo sapiens, UniProt P01889, A329T/A93T/A95T/C349S/D201E/D98Y/E187L/E204Q/E69M/E70A/H137Y/K202T/L119I/Q94N/R155S/R180L/S121R/S35A/S48A/T118I/V306I/V36M/Y140S/Y91S); details: HLA-B*15:02
# HLA-B*3802 allele = HLA-B*3802 allele (Homo sapiens, UniProt P01889, A182T/A93T/A95T/C349S/D138N/D201E/D98Y/E176V/E187T/E204Q/G107R/K202T/L105A/N104T/Q94N/R106L/R155S/R180L/S101N/S121R/Y140F/Y91C); details: HLA-B*38:02
# HLA-B*1301 allele = HLA-B*1301 allele (Homo sapiens, UniProt P01889, A65T/A93T/A95T/D138N/D201E/D98Y/E176V/E204Q/E69M/E70A/G107R/K202T/L105A/L119I/N104T/N87E/Q94N/R106L/R155S/R169L/R180L/S101N/S121R/S35A/S48T/T118I/V127L/V36M/Y140L/Y91S); details: HLA-B*13:01
# [3] = system: combination of HLA-B*1301 allele, HLA-B*1502 allele, HLA-B*3802 allele and HLA-B*3901 allele; details: in vivo
# [4] = system: combination of HLA-B*1301 allele, HLA-B*3802 allele and HLA-B*3901 allele; details: in vivo
# [5] = patients taking sulfasalazine; clinical setting; cited from earlier work
# [6] = Sulfasalazine-DRESS patients, listed as sulfasalazine
# [7] = Sulfasalazine-DRESS vs healthy control
# [8] = Sulfasalazine-DRESS vs healthy control, listed as sulfasalazine
# [9] = Sulfasalazine-SCAR vs healthy control
# [10] = Sulfasalazine-SJS/TEN vs healthy control
# [11] = Sulfasalazine-SJS/TEN patients, listed as sulfasalazine
# [12] = Sulfasalazine-SJS/TEN vs healthy control, listed as sulfasalazine
smiles,measurement,setting,value
O=C(O)c1cc(/N=N/c2ccc(S(=O)(=O)Nc3ccccn3)cc2)ccc1O [Sulfasalazine],Sensitivity (%),HLA-B*3901 allele; Sulfasalazine-DRESS,38.10%
same,Specificity (%),HLA-B*3901 allele; Sulfasalazine-DRESS,95.43%
same,SCAR N (%) carrying the allele,HLA-B*3901 allele; Sulfasalazine-DRESS patients,8/21
same,SCAR N (%) carrying the allele,HLA-B*3901 allele; [6],8 of 21
same,Odds Ratio (95% CI),HLA-B*3901 allele; [7],12.2
same,Odds Ratio (95% CI),HLA-B*3901 allele; [8],12.2 (4.6-32.5)
same,Sensitivity (%),HLA-B*3901 allele; Sulfasalazine-SCAR,28.13%
same,Specificity (%),HLA-B*3901 allele; Sulfasalazine-SCAR,95.43%
same,SCAR N (%) carrying the allele,HLA-B*3901 allele; Sulfasalazine-SCAR patients,9/32
same,Odds Ratio (95% CI),HLA-B*3901 allele; [9],8.2
same,Sensitivity (%),HLA-B*3901 allele; Sulfasalazine-SJS/TEN,0%
same,Specificity (%),HLA-B*3901 allele; Sulfasalazine-SJS/TEN,95.43%
same,SCAR N (%) carrying the allele,HLA-B*3901 allele; Sulfasalazine-SJS/TEN patients,0/11
same,Odds Ratio (95% CI),HLA-B*3901 allele; [10],1.1
same,Specificity (%),[1],83.95%
same,Specificity (%),[2],83.74%
same,Sensitivity (%),HLA-B*1502 allele; Sulfasalazine-DRESS,9.53%
same,Specificity (%),HLA-B*1502 allele; Sulfasalazine-DRESS,90.75%
same,SCAR N (%) carrying the allele,HLA-B*1502 allele; Sulfasalazine-DRESS patients,2/21
same,Odds Ratio (95% CI),HLA-B*1502 allele; [7],1.0
same,Sensitivity (%),HLA-B*1502 allele; Sulfasalazine-SCAR,21.88%
same,Specificity (%),HLA-B*1502 allele; Sulfasalazine-SCAR,90.75%
same,SCAR N (%) carrying the allele,HLA-B*1502 allele; Sulfasalazine-SCAR patients,7/32
same,Odds Ratio (95% CI),HLA-B*1502 allele; [9],2.7
same,Sensitivity (%),HLA-B*1502 allele; Sulfasalazine-SJS/TEN,45.45%
same,Specificity (%),HLA-B*1502 allele; Sulfasalazine-SJS/TEN,90.75%
same,SCAR N (%) carrying the allele,HLA-B*1502 allele; Sulfasalazine-SJS/TEN patients,5/11
same,SCAR N (%) carrying the allele,HLA-B*1502 allele; [11],5 out of 11
same,Odds Ratio (95% CI),HLA-B*1502 allele; [10],8.2
same,Odds Ratio (95% CI),HLA-B*1502 allele; [12],8.2 (2.4-27.4)
same,Sensitivity (%),HLA-B*3802 allele; Sulfasalazine-DRESS,0%
same,Specificity (%),HLA-B*3802 allele; Sulfasalazine-DRESS,92.45%
same,SCAR N (%) carrying the allele,HLA-B*3802 allele; Sulfasalazine-DRESS patients,0/21
same,Odds Ratio (95% CI),HLA-B*3802 allele; [7],0.3
same,Sensitivity (%),HLA-B*3802 allele; Sulfasalazine-SCAR,18.75%
same,Specificity (%),HLA-B*3802 allele; Sulfasalazine-SCAR,92.45%
same,SCAR N (%) carrying the allele,HLA-B*3802 allele; Sulfasalazine-SCAR patients,6/32
same,Odds Ratio (95% CI),HLA-B*3802 allele; [9],2.8
same,Sensitivity (%),HLA-B*3802 allele; Sulfasalazine-SJS/TEN,54.54%
same,Specificity (%),HLA-B*3802 allele; Sulfasalazine-SJS/TEN,92.45%
same,SCAR N (%) carrying the allele,HLA-B*3802 allele; Sulfasalazine-SJS/TEN patients,6/11
same,SCAR N (%) carrying the allele,HLA-B*3802 allele; [11],6 out of 11
same,Odds Ratio (95% CI),HLA-B*3802 allele; [10],14.7
same,Odds Ratio (95% CI),HLA-B*3802 allele; [12],14.7 (4.4-49.4)
same,Sensitivity (%),HLA-B*1301 allele; Sulfasalazine-DRESS,38.10%
same,Specificity (%),HLA-B*1301 allele; Sulfasalazine-DRESS,87.89%
same,SCAR N (%) carrying the allele,HLA-B*1301 allele; Sulfasalazine-DRESS patients,8/21
same,SCAR N (%) carrying the allele,HLA-B*1301 allele; [6],8 of 21
same,Odds Ratio (95% CI),HLA-B*1301 allele; [7],4.5
same,Odds Ratio (95% CI),HLA-B*1301 allele; [8],4.5 (1.8-11.0)
same,Sensitivity (%),HLA-B*1301 allele; Sulfasalazine-SCAR,28.13%
same,Specificity (%),HLA-B*1301 allele; Sulfasalazine-SCAR,87.89%
same,SCAR N (%) carrying the allele,HLA-B*1301 allele; Sulfasalazine-SCAR patients,9/32
same,Odds Ratio (95% CI),HLA-B*1301 allele; [9],2.8
same,Sensitivity (%),HLA-B*1301 allele; Sulfasalazine-SJS/TEN,9.09%
same,Specificity (%),HLA-B*1301 allele; Sulfasalazine-SJS/TEN,87.89%
same,SCAR N (%) carrying the allele,HLA-B*1301 allele; Sulfasalazine-SJS/TEN patients,1/11
same,Odds Ratio (95% CI),HLA-B*1301 allele; [10],0.7
same,SCAR N (%) carrying the alleles,[3],24/32
same,Sensitivity (%),[3],75.00%
same,Specificity (%),[3],60.35%
same,SCAR N (%) carrying the alleles,[4],22/32
same,Sensitivity (%),[4],68.75%
same,Specificity (%),[4],78.32%
same,patients developing obvious side effects,[5],Approximately 25%
